The term IC50 denotes the concentration that inhibits the measured activity by half. In general, MIC refers to the lowest concentration that inhibits growth of the organism.

Test [1] addresses T1, OXA-11 (Pseudomonas aeruginosa, UniProt Q06778).
T1 construct: made in house; host or cells: E. coli
The experiment in a line: β-lactamase inhibitory activity, determination of IC50 (nitrocefin hydrolysis). In kind it is biochemical.

Test [2] has as its target T2, SHV-1 (Klebsiella pneumoniae, UniProt P0AD64).
T2 construct: made in house; host or cells: E. coli
The description is as above. In kind it is biochemical.

Test [3] has as its target AmpC P. aeruginosa (Pseudomonas aeruginosa, UniProt P24735). The test is described as above.
For test [4], the target named is T3, OXA-15 (Pseudomonas aeruginosa, UniProt Q51574).
T3 construct: made in house; host or cells: E. coli
T3 sequence (Q51574 22-275): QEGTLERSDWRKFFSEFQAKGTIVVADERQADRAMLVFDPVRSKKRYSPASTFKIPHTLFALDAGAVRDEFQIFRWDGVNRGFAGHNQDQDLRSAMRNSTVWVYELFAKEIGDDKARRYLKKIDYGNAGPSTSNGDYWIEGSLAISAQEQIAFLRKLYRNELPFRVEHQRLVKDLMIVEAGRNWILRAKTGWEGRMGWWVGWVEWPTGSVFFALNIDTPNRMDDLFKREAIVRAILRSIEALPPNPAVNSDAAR
As to the kind of experiment: biochemical.

Test [5] relates to E. coli UFR41 (TEM-1, CTX-M-15, CMY-2, OXA-1, NDM-4). As to the kind of experiment: MIC of compounds alone, broth microdilution. In kind it is cell-based. As to conditions: Escherichia coli, read-out: MIC compounds of the invention alone. A digest of the protocol:
(§1)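 Each compound, tested on its own, is serially diluted against a 5×10^5 cfu/mL log-phase suspension in cation-adjusted Mueller-Hinton broth following CLSI M7-A7. After 16-20 h at 35° C in air, the lowest concentration showing no visible growth gives the MIC.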
For orientation: Dilution methods test growth across graded concentrations, often in twofold steps.

The test system of test [6] is E. coli UFR74 (SHV-1, DHA-1). The experiment in a line: MIC of compounds alone, broth microdilution. Type of test: cell-based. The settings on record: Escherichia coli; strain UFR74 (E. coli); read-out: MIC compounds of the invention alone. The method, boiled down:
as §1

Test [7] relates to K. pneumoniae UFR24 (TEM-1, SHV-2, SHV-11, OXA-1, OXA-48, OXA-47). As to the kind of experiment: MIC of compounds alone, broth microdilution. The settings on record: Klebsiella pneumoniae; strain UFR24 (K. pneumoniae); read-out: MIC compounds of the invention alone. In kind it is cell-based. A digest of the protocol:
as §1

The subject of test [8] is E. coli 131119 (TEM-1, OXA-48). The experiment in a line: MIC of compounds alone, broth microdilution. In kind it is cell-based. The settings on record: Escherichia coli; strain 131119 (E. coli); read-out: MIC compounds of the invention alone. A digest of the protocol: as §1
For test [9], the system named is E. cloacae P99 (AmpC). As to the kind of experiment: MIC of compounds alone, broth microdilution. The settings on record: Enterobacter cloacae; strain P99 (E. cloacae); read-out: MIC compounds of the invention alone. Type of test: cell-based. A digest of the protocol: as §1
In test [10] the test system is E. coli UFR18 (CTX-M-15, OXA-204). As to the kind of experiment: MIC of compounds alone, broth microdilution. In kind it is cell-based. The settings on record: Escherichia coli; strain UFR18 (E. coli); read-out: MIC compounds of the invention alone. The method, boiled down:
as §1

Test [11] concerns K. pneumoniae UFR39 (CTX-M-15, NDM-1). As to the kind of experiment: MIC of compounds alone, broth microdilution. In kind it is cell-based. The settings on record: Klebsiella pneumoniae; strain UFR39 (K. pneumoniae); read-out: MIC compounds of the invention alone. A digest of the protocol:
as §1

The subject of test [12] is E. cloacae UFR51 (SHV-12, IMP-8). As to the kind of experiment: MIC of compounds alone, broth microdilution. Type of test: cell-based. As to conditions: Enterobacter cloacae; strain UFR51 (E. cloacae); read-out: MIC compounds of the invention alone. A digest of the protocol:
as §1

For test [13], the system named is K. pneumoniae 160143 (TEM-1, SHV-1, CTX-M-15, KPC-2, OXA-1). As to the kind of experiment: MIC of compounds alone, broth microdilution. In kind it is cell-based. The settings on record: Klebsiella pneumoniae, read-out: MIC compounds of the invention alone. A digest of the protocol:
as §1

Test [14] concerns K. pneumoniae UFR77 (CMY-2). The experiment in a line: MIC of compounds alone, broth microdilution. Type of test: cell-based. The settings on record: Klebsiella pneumoniae; strain UFR77 (K. pneumoniae); read-out: MIC compounds of the invention alone. The method, boiled down:
as §1

In test [15] the test system is E. coli UFR61O (TEM-1, KPC-2). The experiment in a line: MIC of compounds alone, broth microdilution. In kind it is cell-based. The settings on record: Escherichia coli; strain UFR61O (E. coli); read-out: MIC compounds of the invention alone. A digest of the protocol: as §1
The test system of test [16] is K. pneumoniae BAA-1898 (TEM-1, SHV-11, SHV-12, KPC-2). As to the kind of experiment: MIC of compounds alone, broth microdilution. In kind it is cell-based. As to conditions: Klebsiella pneumoniae, BAA1898; strain BAA-1898 (K. pneumoniae); read-out: MIC compounds of the invention alone. The method, boiled down:
as §1

Test [17] deals with P. aeruginosa CIP107051 (TEM-24). The experiment in a line: MIC of compounds alone, broth microdilution. In kind it is cell-based. As to conditions: Pseudomonas aeruginosa; strain CIP107051 (P. aeruginosa); read-out: MIC compounds of the invention alone. A digest of the protocol:
as §1

Test [18] has as its system K. oxytoca UFR21 (TEM-1, CTX-M-15, OXA-48). The experiment in a line: MIC of compounds alone, broth microdilution. In kind it is cell-based. The settings on record: Klebsiella oxytoca, read-out: MIC compounds of the invention alone. A digest of the protocol:
as §1

The subject of test [19] is K. pneumoniae 6299 (TEM-1, SHV-11, OXA-163). As to the kind of experiment: MIC of compounds alone, broth microdilution. In kind it is cell-based. The settings on record: Klebsiella pneumoniae; strain 6299 (K. pneumoniae); read-out: MIC compounds of the invention alone. The method, boiled down: as §1
Test [20] deals with K. pneumoniae 200047 (TEM-1, SHV-32, CTX-M-15, OXA-1). The experiment in a line: MIC of compounds alone, broth microdilution. In kind it is cell-based. The settings on record: Klebsiella pneumoniae, read-out: MIC compounds of the invention alone. The method, boiled down: as §1
In test [21] the test system is E. coli UFR32 (TEM-1, VEB-1, OXA-10). As to the kind of experiment: MIC of compounds alone, broth microdilution. Type of test: cell-based. As to conditions: Escherichia coli; strain UFR32 (E. coli); read-out: MIC compounds of the invention alone. A digest of the protocol: as §1
Test [22] has as its target T4, TEM-1 (Escherichia coli, UniProt P62593).
T4 construct: made in house; host or cells: E. coli
As to the kind of experiment: β-lactamase inhibitory activity, determination of IC50 (nitrocefin hydrolysis). Type of test: biochemical.

Test [23] concerns the target T5, OXA-1 (Escherichia coli, UniProt P13661).
T5 construct: made in house; host or cells: E. coli
The test is described as above. Type of test: biochemical. The settings on record: class (D); nitrocefin 200 μM, 30 min pre-incubation; read-out: IC50 β-lactamase OXA-1.

Test [24] concerns E. cloacae UFR51 (SHV-12, IMP-8). The experiment in a line: MIC of ceftazidime (CAZ) in combination with compounds at 4 μg/mL, broth microdilution. As to conditions: strain UFR51; MIC of CAZ with compound fixed at 4 μg/mL. Type of test: cell-based. The method, boiled down: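 Compounds were dissolved in DMSO and spotted onto plates. Log-phase cells were then added at 5×10^5 cfu/mL in cation-adjusted Mueller-Hinton broth, incubated 16-20 h at 35° C, and the MIC was scored visually as the lowest growth-inhibiting concentration.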

Each structure is given as a SMILES string.

T5 sequence (P13661 26-276): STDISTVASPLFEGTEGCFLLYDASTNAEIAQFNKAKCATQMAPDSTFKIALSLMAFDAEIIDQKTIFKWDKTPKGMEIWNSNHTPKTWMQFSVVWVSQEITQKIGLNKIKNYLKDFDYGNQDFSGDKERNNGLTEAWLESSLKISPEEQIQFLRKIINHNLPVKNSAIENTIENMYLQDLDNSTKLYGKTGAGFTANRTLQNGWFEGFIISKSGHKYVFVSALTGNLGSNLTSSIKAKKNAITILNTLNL
T4 sequence (P62593 24-286 limits assumed): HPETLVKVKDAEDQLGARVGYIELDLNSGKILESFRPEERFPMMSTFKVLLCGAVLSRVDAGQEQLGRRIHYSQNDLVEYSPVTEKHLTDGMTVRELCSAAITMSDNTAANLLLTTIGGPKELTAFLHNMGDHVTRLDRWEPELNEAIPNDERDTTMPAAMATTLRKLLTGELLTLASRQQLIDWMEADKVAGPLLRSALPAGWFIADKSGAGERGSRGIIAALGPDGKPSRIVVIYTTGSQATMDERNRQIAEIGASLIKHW
T1 sequence (Q06778 21-266): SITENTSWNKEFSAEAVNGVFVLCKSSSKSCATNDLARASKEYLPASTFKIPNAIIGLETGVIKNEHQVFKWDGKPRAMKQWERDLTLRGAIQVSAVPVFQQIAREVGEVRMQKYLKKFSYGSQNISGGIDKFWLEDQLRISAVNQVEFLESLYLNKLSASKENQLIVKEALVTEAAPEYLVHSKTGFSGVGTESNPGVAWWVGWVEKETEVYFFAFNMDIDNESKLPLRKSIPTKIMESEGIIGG
T2 sequence (P0AD64 22-286): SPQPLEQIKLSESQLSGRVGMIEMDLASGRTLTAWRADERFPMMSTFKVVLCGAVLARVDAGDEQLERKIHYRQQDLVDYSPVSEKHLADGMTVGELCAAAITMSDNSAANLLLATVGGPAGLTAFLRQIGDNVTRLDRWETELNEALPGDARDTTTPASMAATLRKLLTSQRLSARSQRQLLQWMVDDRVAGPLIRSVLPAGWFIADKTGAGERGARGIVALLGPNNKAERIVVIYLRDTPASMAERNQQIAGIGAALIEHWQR
Chain of AmpC P. aeruginosa (P24735 27-397): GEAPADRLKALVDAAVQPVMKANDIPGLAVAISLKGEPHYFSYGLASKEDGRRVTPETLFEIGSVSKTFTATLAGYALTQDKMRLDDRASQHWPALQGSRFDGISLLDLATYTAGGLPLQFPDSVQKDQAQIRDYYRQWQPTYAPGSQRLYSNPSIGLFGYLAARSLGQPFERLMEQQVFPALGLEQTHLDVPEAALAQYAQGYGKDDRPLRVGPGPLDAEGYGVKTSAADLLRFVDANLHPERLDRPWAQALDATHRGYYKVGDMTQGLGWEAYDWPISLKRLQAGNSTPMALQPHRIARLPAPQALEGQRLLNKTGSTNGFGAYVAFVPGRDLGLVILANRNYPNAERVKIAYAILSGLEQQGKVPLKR

For the compound `O=C1N2CC(c3ncco3)=C[C@H](C2)N1OS(=O)(=O)[O-].[Na+]` [Example 44, Sodium [(5R)-3-(oxazol-2-yl)-7-oxo-1,6-diazabicyclo[3.2.1]oct-3-en-6-yl] sulfate], the IC50 was 46 nM in test [1]; 6 nM in [2]; 75 nM in [3]; 67 nM in test [4]; 0.69 nM in [22]; 87 nM in test [23]. Also, the MIC in test [5] came to 4 µg/mL; in test [6], 2 µg/mL; in [7], 2 µg/mL; in test [8], 0.5 µg/mL; in test [9] it was 4 µg/mL; in test [10], 1 µg/mL. Besides, the MIC was found to be 4 µg/mL in test [11]; 1 µg/mL in test [12]; 1 µg/mL in test [13]; 2 µg/mL in test [14]; 4 µg/mL in test [15]; 4 µg/mL in test [16]. For the same compound, the MIC is above 32 µg/mL in test [17]; 4 µg/mL in test [18]; 4 µg/mL in test [19]; 1 µg/mL in test [20]; 1 µg/mL in [21]. Further, in test [24], the “MIC combination of CAZ and compounds of the invention at 4 μg/mL” value was below 0.25 µg/mL.

The values are drawn from patent publication US10183943B2, “Heterocyclic compounds and their use in preventing or treating bacterial infections” (MUTABILIS, priority 2015, dated 2019).
